From patent US10744128B2, “6-(5-membered heteroaryl)isoquinolin-3-yl-(5-membered heteroaryl) carboxamides and preparation and use thereof” (Samumed, LLC, priority 2017, dated 2020) come the findings set out here.

Experiment [1] has as its system Wnt-responsive promoter (Sp5-Luc reporter) in SW480 colon carcinoma cells. Description: Sp5-Luc reporter gene screening assay for Wnt activity in SW480 cells. The class given is cell-based, human. To be noted: 36 to 48 hours, luminescence. From the text: The screening assay for Wnt activity is described as follows. Reporter cell lines can be generated by stably transducing cancer cell lines (e.g., colon cancer) or primary cells (e.g., IEC-6 intestinal cells) with a lentiviral construct that includes a Wnt-responsive promoter driving expression of the firefly luciferase gene.
SW480 colon carcinoma cells were transduced with a lentiviral vector expressing luciferase with a human Sp5 promoter consisting of a sequence of eight TCF/LEF binding sites. SW480 cells stably expressing the Sp5-Luc reporter gene and a hygromycin resistance gene were selected by treatment with 150 μg/mL of hygromycin for 7 days. These stably transduced SW480 cells were expanded in cell culture and used for all further screening activities. […] For Sp5-Luc reporter gene assays, the cells were plated at 4,000 cells/well in 384-well plates with a DMEM medium containing 1% fetal bovine serum, and 1% Penicillin-Streptomycin and incubated for 36 to 48 hours at 37° C. and 5% CO2. Following incubation, 15 μl of BriteLite Plus luminescence reagent (Perkin Elmer) was added to each well of the 384-well assay plates. The plates were placed on an orbital shaker for 2 min and then luminescence was quantified using the Envision (Perkin Elmer) plate reader. Readings were normalized to DMSO only treated cells, and normalized activities were utilized for EC50 calculations using the dose-response log (inhibitor) vs. response −variable slope (four parameters) nonlinear regression feature available in GraphPad Prism 5.0 (or Dotmatics).

Experiment [2] addresses recombinant GSK3β kinase (Homo sapiens (Human), UniProt P49841). Description: GSK3β kinase assay (Ser/Thr 09 peptide Z-lyte, FRET). The class given is biochemical. The note with it: GSK3β kinase, 46 μM ATP, one hour; method calls values IC50.
Experiment [3] has as its system SW480 colon carcinoma cells. Description: Cell viability assay (CellTiter-Glo) in SW480 cells. To be noted: four days. The class given is cell-based, human. The protocol: SW480 colon carcinoma cells were transduced with a lentiviral vector expressing luciferase with a human Sp5 promoter consisting of a sequence of eight TCF/LEF binding sites. SW480 cells stably expressing the Sp5-Luc reporter gene and a hygromycin resistance gene were selected by treatment with 150 µg/mL of hygromycin for 7 days. These stably transduced SW480 cells were expanded in cell culture and used for all further screening activities.
For the Cell Viability Assays, the cells were plated at 2,000 cells/well in 384-well plates with a DMEM medium containing 1% fetal bovine serum, and 1% Penicillin-Streptomycin and incubated for […] at 37° C. and 5% CO2. Eight replicates of DMSO-treated cells served as controls and cells treated with compound were performed in duplicate.
After incubation, 10 μL of CellTiter-Glo (Promega) was added to each well allowed to incubate for approximately 12 minutes. This reagent “results in cell lysis and generation of a luminescent signal proportional to the amount of ATP present. The amount of ATP is directly proportional to the number of cells present in culture, in agreement with previous reports. The CellTiter-Glo® Assay generates a “glow-type” luminescent signal, produced by the luciferase reaction (Promega.com)”.
For orientation: Cellular ATP, detected with luciferase, serves as a proxy for viable cell number.

Experiment [4] relates to primary human fibroblasts derived from IPF patients (LL29 cells), α-smooth muscle actin. Description: Inhibition of fibrotic process: αSMA in TGF-β1 treated LL29 fibroblasts. The class given is cell-based. The note with it: LL29 cells, TGF-β1 20 ng/mL, 4 days, % cells positive for αSMA. Here is the method: Representative compounds were screened using primary human fibroblasts (derived from IPF patients) treated with TGF-β1 to determine their ability to inhibit the fibrotic process.
LL29 cells were plated at 1,500 cells/well in 70 μL/well F12 medium supplemented with 1% Fetal Bovine Serum. […] Wells treated with TGF-β1 and containing DMSO were used as positive control, and cells with only DMSO were negative control. […] Following incubation for 4 days, SYTOX green nucleic acid stain (Life Technologies [Thermo Fisher Scientific]) was added to the wells at a final concentration of 1 μM and incubated at room temperature for 30 min.

The test system of experiment [5] is IL-6. As to the kind of experiment: IL-6 inhibition in LPS-stimulated human peripheral blood mononuclear cells (HTRF). The class given is cell-based. The note with it: for EC50: huPBMCs, LPS 50 ng/mL, 22 hours, IL-6 HTRF; for inhibition at 10 µM: read-out: percent inhibition at 10 μM. The protocol:
Fresh Normal PB MNC (Catalog # PB001, AllCells, Alameda, Calif.) were shipped overnight at 4° C. and resuspended in Roswell Park Memorial Institute (RPMI) 1640 Medium, with GlutaMAX Supplement (Catalog #61870127, ThermoFisher Scientific, Waltham, Mass.) supplemented with 1% Penicillin-Streptomycin (Catalog #15140163, ThermoFisher Scientific, Waltham, Mass.) and 1% fetal bovine serum (FBS) (Catalog #16140089, ThermoFisher Scientific, Waltham, Mass.) assay media.
Fresh normal human peripheral blood mononuclear cells (huPBMCs) were resuspended in 1% FBS-RPMI assay media with 1% Penicillin-Streptomycin 1% to a cell concentration of 1×10e6 cells/mL. […] 50 ng/mL of Lipopolysaccharides from Escherichia coli 0111:B4 (Catalog #L5293-2ML, Sigma-Aldrich, St. Louis, Mo.) was added after 2 hours and cells were incubated for another 22 hours at 37° C.-5% CO2. After 22 hour incubation, a mixture of anti-IL6 XL665 and anti-IL-6 Cryptate diluted in reconstitution buffer (Catalog #62IL6PEC, Cisbio Inc., Bedford, Mass.) was added to each well. Following incubation for 3 hours at room temperature, Homogeneous Time-Resolved Fluorescence (HTRF) was measured using the Envision (Perkin Elmer, Shelton, Conn.) at 665 nm and […]. The ratio of fluorescence at 665 nm to 620 nm was used as a readout for IL-6 quantification. All samples were processed in duplicate. Readings were normalized to DMSO treated cells and normalized activities were utilized for EC50 calculations. EC50 was determined using software generated by Dotmatics Limited (Windhill Bishops Stortford Herts, UK) using the Levenberg-Marquardt 4 parameter fitting procedure with finite different gradients.
For orientation: TR-FRET usually uses a lanthanide donor and a delayed reading to cut background.

Experiment [6] deals with recombinant DYRK1A kinase (Homo sapiens (Human), UniProt Q13627). As to the kind of experiment: DYRK1A kinase assay (Ser/Thr 18 peptide Z-lyte, FRET). The note with it: DYRK1A kinase, 30 μM ATP, one hour; method calls values IC50.

Sequence of recombinant GSK3β kinase (P49841 whole entry): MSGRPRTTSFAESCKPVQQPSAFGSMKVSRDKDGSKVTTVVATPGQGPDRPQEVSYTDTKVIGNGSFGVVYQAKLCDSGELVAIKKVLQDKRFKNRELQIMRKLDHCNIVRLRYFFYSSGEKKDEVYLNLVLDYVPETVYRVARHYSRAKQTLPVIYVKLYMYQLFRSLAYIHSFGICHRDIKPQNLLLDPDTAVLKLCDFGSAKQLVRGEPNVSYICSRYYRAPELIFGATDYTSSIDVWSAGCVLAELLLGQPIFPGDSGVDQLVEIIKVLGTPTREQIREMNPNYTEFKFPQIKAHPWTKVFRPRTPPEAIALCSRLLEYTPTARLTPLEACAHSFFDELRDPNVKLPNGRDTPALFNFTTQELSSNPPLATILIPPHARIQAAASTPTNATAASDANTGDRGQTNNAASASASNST

Turning to `CC(C)n1cc(C(=O)Nc2cc3cc(-c4cnn(C5CCN(C)CC5)c4)ccc3cn2)cn1` [Compound 1, 1-Isopropyl-N-(6-(1-(1-methylpiperidin-4-yl)-1H-pyrazol-4-yl)isoquinolin-3-yl)-1H-pyrazole-4-carboxamide], the EC50 in experiment [1] (Homo sapiens) is 0.387 µM; in experiment [2], 9.99 µM; in experiment [3] (Homo sapiens, 96 h), 0.608 µM; in experiment [4] (Homo sapiens, Fibroblast, 96 h), 0.953 µM; in experiment [5] (Homo sapiens, PBMC), 3.44 µM; in experiment [6] it was 0.039 µM.

As to `Cc1nc(C(=O)Nc2cc3cc(-c4cncn4C)ccc3cn2)co1` [Compound 53, 2-Methyl-N-(6-(1-methyl-1H-imidazol-5-yl)isoquinolin-3-yl)oxazole-4-carboxamide], the EC50 was 1.89 µM in experiment [1] (Homo sapiens); 0.821 µM in experiment [2]; 3.2 µM in experiment [3] (Homo sapiens, 96 h); 2.42 µM in experiment [4] (Homo sapiens, Fibroblast, 96 h); greater than 10 µM in experiment [5] (Homo sapiens, PBMC); 0.014 µM in experiment [6]. Moreover, the inhibition at 10 µM in experiment [5] (Homo sapiens, PBMC) stood at 47.5%.

`Cn1cc(-c2ccc3cnc(NC(=O)c4cn(C5CCN(CCF)CC5)nn4)cc3c2)nn1` [Compound 34, 1-(1-(2-Fluoroethyl)piperidin-4-yl)-N-(6-(1-methyl-1H-1,2,3-triazol-4-yl)isoquinolin-3-yl)-1H-1,2,3-triazole-4-carboxamide]: the 50% effective concentration (EC50) stood at 0.23 µM in experiment [1] (Homo sapiens); 0.395 µM in experiment [2]; 0.664 µM in experiment [3] (Homo sapiens, 96 h); 0.642 µM in experiment [4] (Homo sapiens, Fibroblast, 96 h); 1.1 µM in experiment [5] (Homo sapiens, PBMC); 0.006 µM in experiment [6].

In the case of `CN1CCN(c2nc(C(=O)Nc3cc4cc(-c5cnn(C)c5)ccc4cn3)co2)CC1` [Compound 23, N-(6-(1-Methyl-1H-pyrazol-4-yl)isoquinolin-3-yl)-2-(4-methylpiperazin-1-yl)oxazole-4-carboxamide], the EC50 was 1.02 µM in experiment [1] (Homo sapiens); 2.18 µM in experiment [2]; 3.73 µM in experiment [3] (Homo sapiens, 96 h); 0.325 µM in experiment [4] (Homo sapiens, Fibroblast, 96 h); greater than 10 µM in experiment [5] (Homo sapiens, PBMC); 0.018 µM in experiment [6]. The inhibition at 10 µM in experiment [5] (Homo sapiens, PBMC) was found to be 5.5%.

Take `Cc1nc(C(=O)Nc2cc3cc(-c4cncn4C)ccc3cn2)cs1` [Compound 57, 2-Methyl-N-(6-(1-methyl-1H-imidazol-5-yl)isoquinolin-3-yl)thiazole-4-carboxamide]: the EC50 in experiment [1] (Homo sapiens) is 2.55 µM; in experiment [2], 1.61 µM; in experiment [3] (Homo sapiens, 96 h), 1.81 µM; in experiment [4] (Homo sapiens, Fibroblast, 96 h) it was 2.83 µM; in experiment [5] (Homo sapiens, PBMC), greater than 10 µM; in experiment [6], 0.006 µM. Further, in experiment [5] (Homo sapiens, PBMC), the inhibition at 10 µM came to 19.6%.

On to `CN(C)C1CN(c2ncc(C(=O)Nc3cc4cc(-c5cnn(C)c5)ccc4cn3)s2)C1` [Compound 24, 2-(3-(Dimethylamino)azetidin-1-yl)-N-(6-(1-methyl-1H-pyrazol-4-yl)isoquinolin-3-yl)thiazole-5-carboxamide], for which the half-maximal effective concentration (EC50) is 1.32 µM in experiment [1] (Homo sapiens); 1.76 µM in experiment [2]; 1.64 µM in experiment [3] (Homo sapiens, 96 h); 2.75 µM in experiment [4] (Homo sapiens, Fibroblast, 96 h); 3.02 µM in experiment [5] (Homo sapiens, PBMC); 0.002 µM in experiment [6].

In the case of `CN1CCC(c2nc(C(=O)Nc3cc4cc(-c5cn(C)nn5)ccc4cn3)co2)CC1` [Compound 37, N-(6-(1-Methyl-1H-1,2,3-triazol-4-yl)isoquinolin-3-yl)-2-(1-methylpiperidin-4-yl)oxazole-4-carboxamide], the EC50 in experiment [1] (Homo sapiens) came to 0.105 µM; in experiment [2], 0.342 µM; in experiment [3] (Homo sapiens, 96 h), 0.179 µM; in experiment [4] (Homo sapiens, Fibroblast, 96 h), 0.248 µM; in experiment [5] (Homo sapiens, PBMC), 2.66 µM; in experiment [6], 0.024 µM.

As to “N-(6-(1-Methyl-1H-pyrazol-4-yl)isoquinolin-3-yl)-2-(4-methylpiperazin-1-yl)oxazole-5-carboxamide [Compound 15]”, the half-maximal effective concentration (EC50) in experiment [1] is 0.103 µM; in experiment [2], 9.52 µM; in experiment [3], 0.146 µM; in experiment [4], 0.279 µM; in experiment [5] it was 0.754 µM; in experiment [6], 0.008 µM.

As to `CC(C)c1nc(C(=O)Nc2cc3cc(-c4cncn4C)ccc3cn2)co1` [Compound 54, 2-Isopropyl-N-(6-(1-methyl-1H-imidazol-5-yl)isoquinolin-3-yl)oxazole-4-carboxamide], the concentration giving a half-maximal response (EC50) in experiment [1] (Homo sapiens) was 2.13 µM; in experiment [2], 1.92 µM; in experiment [3] (Homo sapiens, 96 h), 3.73 µM; in experiment [4] (Homo sapiens, Fibroblast, 96 h), 3.21 µM; in experiment [5] (Homo sapiens, PBMC), 6.51 µM; in experiment [6] it was 0.018 µM.

As to `CC(C)n1cc(C(=O)Nc2cc3cc(-c4cncn4C(C)C)ccc3cn2)cn1` [Compound 70, 1-Isopropyl-N-(6-(1-isopropyl-1H-imidazol-5-yl)isoquinolin-3-yl)-1H-pyrazole-4-carboxamide], the concentration giving a half-maximal response (EC50) in experiment [1] (Homo sapiens) was found to be 0.115 µM; in experiment [2], 7.08 µM; in experiment [3] (Homo sapiens, 96 h), 0.132 µM; in experiment [4] (Homo sapiens, Fibroblast, 96 h), 0.249 µM; in experiment [5] (Homo sapiens, PBMC), 1.6 µM; in experiment [6], 0.009 µM.

Consider `Cn1cc(-c2ccc3cnc(NC(=O)c4cnn(C5CCNCC5)c4)cc3c2)nn1` [Compound 29, N-(6-(1-Methyl-1H-1,2,3-triazol-4-yl)isoquinolin-3-yl)-1-(piperidin-4-yl)-1H-pyrazole-4-carboxamide], for which the concentration for a half-maximal effect (EC50) in experiment [1] (Homo sapiens) was 0.03 µM; in experiment [2], 0.23 µM; in experiment [3] (Homo sapiens, 96 h), 0.06 µM; in experiment [4] (Homo sapiens, Fibroblast, 96 h), 0.135 µM; in experiment [5] (Homo sapiens, PBMC), 0.366 µM; in experiment [6] it was 0.003 µM.

For the compound `Cc1nnc(-c2ccc3cnc(NC(=O)c4cnn(C5CCN(C(C)C)CC5)c4)cc3c2)s1` [Compound 66, 1-(1-Isopropylpiperidin-4-yl)-N-(6-(5-methyl-1,3,4-thiadiazol-2-yl)isoquinolin-3-yl)-1H-pyrazole-4-carboxamide], the EC50 in experiment [1] (Homo sapiens) was 0.034 µM; in experiment [2], 0.39 µM; in experiment [3] (Homo sapiens, 96 h), 0.046 µM; in experiment [4] (Homo sapiens, Fibroblast, 96 h), 0.169 µM; in experiment [5] (Homo sapiens, PBMC), 0.893 µM; in experiment [6] it was 0.004 µM.

As a reminder, the EC50 is the concentration that produces a half-maximal response. What is called inhibition is the relative decrease from the control value, in per cent.
